From PMC6815936, “A Pan-Cyclophilin Inhibitor, CRV431, Decreases Fibrosis and Tumor Development in Chronic Liver Disease Models” (The Journal of Pharmacology and Experimental Therapeutics, 2019)
Square brackets hold non-standard residues; d marks the D form. Peptide text beside a SMILES is read from it. NMeThr(4R-Me,4-(CH2)6NHAc) = CN[C@H](C(=O)O)[C@H](O)[C@H](C)CCCCCCNC(C)=O; NMeL = CN[C@@H](CC(C)C)C(=O)O; NMeV = CN[C@H](C(=O)O)C(C)C; dNMeA = CN[C@H](C)C(=O)O; Abu = CC[C@H](N)C(=O)O

Experiments:
recombinant Cyp D (PPIF) = molecular target: T1, recombinant Cyp D (PPIF) (Homo sapiens, UniProt P30405); assay: Cyclophilin isomerase assay, Cyp D; format: biochemical
T1 construct: purchased Cedarlane Laboratories CLENZ385
Experimental: (§1) Cyclophilin isomerase activity was measured with an assay described by [Kofron et al. (1991)] with adaptations to 96-well plates. In this assay cyclophilins catalyze cis-to-trans isomerization of a proline peptide bond in a nitroanalide-coupled peptide substrate followed by cleavage of the trans-conformer peptide by α-chymotrypsin, release of the p-nitroaniline chromogen, and quantitation of p-nitroaniline by absorbance at 410 nm. All solutions were pre-equilibrated, and all assays were conducted at 4°C. Plates were preloaded with 5 µl peptide solution consisting of N-succinyl-alanine-alanine-proline-phenylalanine-p-nitroanilide (S7388; Sigma-Aldrich) and 400 mM lithium chloride (310468; Sigma-Aldrich) in anhydrous trifluoroethanol (T63002; Sigma-Aldrich). […] Absorbance measurements with a BMG Polarstar Galaxy plate reader were begun immediately and made at 6-second intervals for 6 minutes. Reaction curves were represented by increases in optical density 410 nm as a function of reaction time. For Ki determinations, initial reaction velocities were obtained from the reaction curves and plotted relative to substrate concentration, and the curves were fitted to the enzyme competitive inhibition model (GraphPad Prism) to derive Ki, maximum velocity (Vmax), and Michaelis constant values. […]

[1] = test system: NASH model in C57BL/6 mice; assay: Mouse NASH model (streptozotocin plus high-fat diet); format: in vivo; design: NAS score / Steatosis score / Inflammation score / Ballooning score: scale not given here
Experimental: NASH was initiated in 2-day-old C57BL/6J male mice by intraperitoneal injection with 200 μg streptozotocin (S0130; Sigma-Aldrich) to disrupt pancreatic β cells, induce diabetes, and promote adiposity in the liver. Mice were weaned at 3 weeks of age and begun on a high-fat diet with 60%kcal fat (D12492N; Research Diets) for the duration of the studies. Additionally, mice with a regular diet (D12450KN; Research Diets) and without streptozotocin were included as negative controls. CRV431 was dissolved in a self-microemulsifying drug vehicle and then diluted with PBS and administered daily by oral gavage at 50 mg/kg per day. The start time and duration of vehicle and CRV431 treatments varied depending on the study.
Blood and livers were collected at the end of the NASH and CCl4 studies. In some studies, serum or plasma was isolated from freshly-collected blood, whereas in other studies blood was frozen for later analysis of CRV431 concentration. Livers were immersion-fixed in zinc-formalin and paraffin-embedded for histologic processing. Liver sections were stained with hematoxylin and eosin for assessment of inflammation, ballooning, and steatosis, and with sirius red for assessment of collagen I and III (fibrosis). Sirius red staining was quantified by blinded analysis in one section per liver using ImageJ software. Scoring of steatosis, ballooning, and inflammation (sum of portal and lobular inflammation) in liver sections was based on criteria and training by a board-certified pathologist.
Liver tumors were quantified in freshly collected livers at sacrifice in one NASH study ending at 30 weeks of age. Liver tumors were counted and their diameters measured with a ruler and classified as small (>0.1 cm diameter, but not exceeding 0.5 cm), medium (0.5–1 cm diameter), or large (>1 cm diameter).

[2] = CRV431 blood and liver exposures across mouse and rat studies; conditions: daily oral dosing, mice and rats
Excerpt: (§2) Male and female Sprague–Dawley rats and male C57BL/6 mice from the carbon tetrachloride and NASH studies were used to evaluate CRV431 pharmacokinetics and distribution. […] Terminal whole blood and livers were collected and frozen until drug extraction. Liver samples were homogenized in PBS or 1% formic acid (0.1 g–0.4 g liver sample per ml solvent) with bead-based homogenizers (TissueLyser or Beadruptor). […] Liver CRV431 concentrations were normalized to the masses of the liver samples.

recombinant Cyp A (PPIA) = molecular target: T2, recombinant Cyp A (PPIA) (Homo sapiens, UniProt P62937); assay: Cyclophilin isomerase assay, Cyp A; format: biochemical
T2 construct: purchased R&D Systems 3589-CAB
Experimental: Cyclophilin isomerase activity was measured with an assay described by [Kofron et al. (1991)] with adaptations to 96-well plates. In this assay cyclophilins catalyze cis-to-trans isomerization of a proline peptide bond in a nitroanalide-coupled peptide substrate followed by cleavage of the trans-conformer peptide by α-chymotrypsin, release of the p-nitroaniline chromogen, and quantitation of p-nitroaniline by absorbance at 410 nm. All solutions were pre-equilibrated, and all assays were conducted at 4°C. Plates were preloaded with 5 µl peptide solution consisting of N-succinyl-alanine-alanine-proline-phenylalanine-p-nitroanilide (S7388; Sigma-Aldrich) and 400 mM lithium chloride (310468; Sigma-Aldrich) in anhydrous trifluoroethanol (T63002; Sigma-Aldrich). […] Absorbance measurements with a BMG Polarstar Galaxy plate reader were begun immediately and made at 6-second intervals for 6 minutes. Reaction curves were represented by increases in optical density 410 nm as a function of reaction time. For Ki determinations, initial reaction velocities were obtained from the reaction curves and plotted relative to substrate concentration, and the curves were fitted to the enzyme competitive inhibition model (GraphPad Prism) to derive Ki, maximum velocity (Vmax), and Michaelis constant values. For IC50 determinations, the reaction curves were fitted to one-phase exponential association regressions to obtain first-order rate constants.

[3] = test system: human peripheral blood mononuclear cells; assay: CFSE-PBMC proliferation; format: cell-based; conditions: highest tested concentration of 10 µM, 3 days
Experimental: Peripheral blood mononuclear cells (PBMC) were isolated by Ficoll Paque Plus centrifugation (17144003; GE Life Sciences) of venous blood from a healthy human volunteer. Cells were incubated for 5 minutes with 5 µg/ml carboxyfluorescein diacetate succinimidyl ester (C1157; Thermo Fisher) to produce stable intracellular carboxyfluorescein succinimidyl ester (CFSE) labeling (CFSE-PBMC). […] Cells were collected after 3 days of culture incubation, and flow cytometry was used to measure the partitioning of CFSE into daughter cells arising from cell division (discrete cell populations with successively halved CFSE content). Daughter cells as a percentage of all CFSE-labeled cells were normalized to DMSO treatment (100% stimulation) and wells without CD3 antibody coating (nonstimulated).

recombinant Cyp B (PPIB) = molecular target: T3, recombinant Cyp B (PPIB) (Homo sapiens, UniProt P23284); assay: Cyclophilin isomerase assay, Cyp B; format: biochemical
T3 construct: purchased Cedarlane Laboratories CLENZ313
Experimental: as §1

BSEP = BSEP (Homo sapiens, UniProt O95342)
Experimental: (§3) Bile salt export pump (BSEP) and multidrug resistance protein (MRP)1 inhibition was assessed by measuring substrate accumulation in membrane vesicles prepared from insect Sf9 cells and recombinantly expressing BSEP and MRP2 (Genomembrane). Inhibition of all other transporters was assessed by measuring substrate accumulation in cells recombinantly expressing the transporter. Known inhibitors of each transporter were used as positive controls for the assays. […] Specific, ATP-dependent uptake was determined by subtracting uptake in negative control vesicles and cells not expressing the transporters, and secondly by subtracting uptake in the absence of ATP in the assays. Specific, ATP-dependent uptake was plotted as a function of CRV431 concentrations and fitted to nonlinear regressions to obtain IC50 values.

MATE-1 = molecular target: T4, MATE-1 (Homo sapiens, UniProt Q96FL8); assay: Drug transporter inhibition, MATE-1; format: in vitro ADME; conditions: MATE-1, HEK293
T4 construct: expressed in transfected cells
Experimental: Inhibition of all other transporters was assessed by measuring substrate accumulation in cells recombinantly expressing the transporter. Known inhibitors of each transporter were used as positive controls for the assays. […] Specific, ATP-dependent uptake was determined by subtracting uptake in negative control vesicles and cells not expressing the transporters, and secondly by subtracting uptake in the absence of ATP in the assays. Specific, ATP-dependent uptake was plotted as a function of CRV431 concentrations and fitted to nonlinear regressions to obtain IC50 values.

[4] = CRV431 concentrations in blood and liver, rats; format: in vivo; conditions: Rat
Excerpt: as §2

BCRP = BCRP (Homo sapiens, UniProt Q9UNQ0)
Experimental: Briefly, PGP and breast cancer resistance protein inhibition was assessed by measuring the bidirectional transport of substrates across cell monolayers in transwell culture plates. Efflux ratios were represented as (apical-to-basal flux)/(basal-to-apical flux), and efflux ratios were plotted relative to CRV431 concentration to derive IC50 values. Bile salt export pump (BSEP) and multidrug resistance protein (MRP)1 inhibition was assessed by measuring substrate accumulation in membrane vesicles prepared from insect Sf9 cells and recombinantly expressing BSEP and MRP2 (Genomembrane). Inhibition of all other transporters was assessed by measuring substrate accumulation in cells recombinantly expressing the transporter. Known inhibitors of each transporter were used as positive controls for the assays. […] Specific, ATP-dependent uptake was determined by subtracting uptake in negative control vesicles and cells not expressing the transporters, and secondly by subtracting uptake in the absence of ATP in the assays. Specific, ATP-dependent uptake was plotted as a function of CRV431 concentrations and fitted to nonlinear regressions to obtain IC50 values.

OAT1 = OAT1 (Homo sapiens, UniProt Q4U2R8); assay: Drug transporter inhibition, OAT1; conditions: OAT1, HEK293
Experimental: as §3

[5] = CRV431 concentrations in blood and liver, mice; format: in vivo, mouse; conditions: for Liver:Blood [CRV431] Ratio: Mouse
Excerpt: as §2

[6] = rat, in vivo, po
Excerpt: (§4) Male and female Sprague–Dawley rats and male C57BL/6 mice from the carbon tetrachloride and NASH studies were used to evaluate CRV431 pharmacokinetics and distribution. […] Terminal whole blood and livers were collected and frozen until drug extraction. Liver samples were homogenized in PBS or 1% formic acid (0.1 g–0.4 g liver sample per ml solvent) with bead-based homogenizers (TissueLyser or Beadruptor). […] Sample and standard compounds were extracted from blood and liver homogenates using a zinc sulfate/methanol precipitation method and quantified by liquid chromatography–electrospray ionization–mass spectrometry, as previously described ([Trepanier et al., 2018]). Liver CRV431 concentrations were normalized to the masses of the liver samples.
(§5) CRV431 pharmacokinetics in rats. […] Whole–blood concentrations of the two compounds were determined at the indicated time points. […] Means and S.D. shown.

[7] = Single oral dose pharmacokinetics in rats; conditions: single oral dose 10 mg/kg
Excerpt: as §4, §5

[8] = molecular target: T5, recombinant cyclophilin G (PPIG) (Homo sapiens, UniProt Q13427); assay: Cyclophilin isomerase assay, cyclophilin G; format: biochemical
T5 construct: purchased Cedarlane Laboratories CLENZ463
Experimental: as §1

[9] = Week 3–14 Treatment, 50 mg/kg per day oral
[10] = Week 8–14 Treatment, 50 mg/kg per day oral
[11] = Week 20–30 Treatment, 50 mg/kg per day oral
[12] = mouse, in vivo, po, 50 mg/kg/day

T2 sequence (P62937 whole entry): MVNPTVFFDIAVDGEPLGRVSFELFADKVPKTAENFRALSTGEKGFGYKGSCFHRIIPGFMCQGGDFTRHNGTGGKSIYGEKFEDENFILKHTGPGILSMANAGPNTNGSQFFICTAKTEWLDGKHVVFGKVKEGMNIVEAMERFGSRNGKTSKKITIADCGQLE
OAT1, sequence (Q4U2R8 whole entry): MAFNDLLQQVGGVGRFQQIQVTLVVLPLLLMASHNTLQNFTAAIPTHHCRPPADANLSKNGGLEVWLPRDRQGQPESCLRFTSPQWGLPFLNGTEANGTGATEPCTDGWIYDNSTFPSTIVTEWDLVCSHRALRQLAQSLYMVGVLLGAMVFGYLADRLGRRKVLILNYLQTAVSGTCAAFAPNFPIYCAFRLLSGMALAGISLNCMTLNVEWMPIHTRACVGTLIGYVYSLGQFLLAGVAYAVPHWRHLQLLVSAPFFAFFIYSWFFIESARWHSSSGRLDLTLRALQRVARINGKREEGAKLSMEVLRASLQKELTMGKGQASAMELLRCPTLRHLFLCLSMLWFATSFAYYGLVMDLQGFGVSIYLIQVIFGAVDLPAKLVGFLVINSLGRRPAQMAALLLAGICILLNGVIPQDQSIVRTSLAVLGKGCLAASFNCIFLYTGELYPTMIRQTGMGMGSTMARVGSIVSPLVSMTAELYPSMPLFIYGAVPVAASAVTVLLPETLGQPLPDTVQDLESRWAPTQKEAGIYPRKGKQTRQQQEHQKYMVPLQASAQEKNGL
T5 sequence (Q13427 whole entry): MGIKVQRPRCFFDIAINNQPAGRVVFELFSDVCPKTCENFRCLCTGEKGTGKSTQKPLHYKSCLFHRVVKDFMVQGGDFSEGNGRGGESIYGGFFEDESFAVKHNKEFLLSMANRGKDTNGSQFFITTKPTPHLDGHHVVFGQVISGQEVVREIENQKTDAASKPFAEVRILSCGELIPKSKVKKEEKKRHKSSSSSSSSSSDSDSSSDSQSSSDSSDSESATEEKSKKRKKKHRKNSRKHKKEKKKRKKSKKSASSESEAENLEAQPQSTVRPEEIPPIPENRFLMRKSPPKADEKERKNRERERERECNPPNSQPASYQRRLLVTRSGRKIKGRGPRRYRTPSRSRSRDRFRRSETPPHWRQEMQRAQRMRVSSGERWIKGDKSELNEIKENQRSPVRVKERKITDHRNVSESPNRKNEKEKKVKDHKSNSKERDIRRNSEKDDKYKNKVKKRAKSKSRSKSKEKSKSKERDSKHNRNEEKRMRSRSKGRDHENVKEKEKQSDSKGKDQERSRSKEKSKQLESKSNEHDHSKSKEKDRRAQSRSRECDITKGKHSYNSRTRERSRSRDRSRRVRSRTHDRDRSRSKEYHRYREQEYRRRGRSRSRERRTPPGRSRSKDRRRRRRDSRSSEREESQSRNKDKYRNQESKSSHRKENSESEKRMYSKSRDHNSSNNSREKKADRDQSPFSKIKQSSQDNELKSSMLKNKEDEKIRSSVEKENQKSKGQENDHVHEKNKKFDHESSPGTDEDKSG
T3 sequence (P23284 34-216): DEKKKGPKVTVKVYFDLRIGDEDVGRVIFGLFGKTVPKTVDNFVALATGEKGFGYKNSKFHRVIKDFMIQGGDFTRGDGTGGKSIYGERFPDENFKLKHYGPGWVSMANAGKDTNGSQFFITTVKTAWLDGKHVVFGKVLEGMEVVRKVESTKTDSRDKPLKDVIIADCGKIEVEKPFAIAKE
T1 sequence (P30405 30-207): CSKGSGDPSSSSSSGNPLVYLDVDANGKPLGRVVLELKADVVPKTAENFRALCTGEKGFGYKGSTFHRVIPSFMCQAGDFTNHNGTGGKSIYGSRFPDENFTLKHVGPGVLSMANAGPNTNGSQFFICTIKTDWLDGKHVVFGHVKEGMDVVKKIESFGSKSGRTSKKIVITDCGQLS
BCRP, sequence (Q9UNQ0 whole entry): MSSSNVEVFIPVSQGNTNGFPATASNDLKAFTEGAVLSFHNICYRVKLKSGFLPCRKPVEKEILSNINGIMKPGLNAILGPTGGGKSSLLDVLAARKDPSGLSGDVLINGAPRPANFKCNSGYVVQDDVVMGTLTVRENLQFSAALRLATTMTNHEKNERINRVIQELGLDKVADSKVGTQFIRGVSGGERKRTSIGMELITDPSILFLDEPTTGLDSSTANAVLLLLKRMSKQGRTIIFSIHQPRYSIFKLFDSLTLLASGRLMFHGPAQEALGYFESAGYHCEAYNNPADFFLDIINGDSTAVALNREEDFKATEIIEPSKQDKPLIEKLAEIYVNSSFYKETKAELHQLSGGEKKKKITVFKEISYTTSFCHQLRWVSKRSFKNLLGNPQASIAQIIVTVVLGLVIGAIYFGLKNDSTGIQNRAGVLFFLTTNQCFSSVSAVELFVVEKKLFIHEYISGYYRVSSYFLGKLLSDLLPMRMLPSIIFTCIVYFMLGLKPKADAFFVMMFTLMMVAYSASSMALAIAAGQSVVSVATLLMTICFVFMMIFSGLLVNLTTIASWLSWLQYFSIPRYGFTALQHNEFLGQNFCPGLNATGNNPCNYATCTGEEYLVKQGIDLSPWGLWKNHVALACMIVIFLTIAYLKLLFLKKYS
BSEP, sequence (O95342 whole entry): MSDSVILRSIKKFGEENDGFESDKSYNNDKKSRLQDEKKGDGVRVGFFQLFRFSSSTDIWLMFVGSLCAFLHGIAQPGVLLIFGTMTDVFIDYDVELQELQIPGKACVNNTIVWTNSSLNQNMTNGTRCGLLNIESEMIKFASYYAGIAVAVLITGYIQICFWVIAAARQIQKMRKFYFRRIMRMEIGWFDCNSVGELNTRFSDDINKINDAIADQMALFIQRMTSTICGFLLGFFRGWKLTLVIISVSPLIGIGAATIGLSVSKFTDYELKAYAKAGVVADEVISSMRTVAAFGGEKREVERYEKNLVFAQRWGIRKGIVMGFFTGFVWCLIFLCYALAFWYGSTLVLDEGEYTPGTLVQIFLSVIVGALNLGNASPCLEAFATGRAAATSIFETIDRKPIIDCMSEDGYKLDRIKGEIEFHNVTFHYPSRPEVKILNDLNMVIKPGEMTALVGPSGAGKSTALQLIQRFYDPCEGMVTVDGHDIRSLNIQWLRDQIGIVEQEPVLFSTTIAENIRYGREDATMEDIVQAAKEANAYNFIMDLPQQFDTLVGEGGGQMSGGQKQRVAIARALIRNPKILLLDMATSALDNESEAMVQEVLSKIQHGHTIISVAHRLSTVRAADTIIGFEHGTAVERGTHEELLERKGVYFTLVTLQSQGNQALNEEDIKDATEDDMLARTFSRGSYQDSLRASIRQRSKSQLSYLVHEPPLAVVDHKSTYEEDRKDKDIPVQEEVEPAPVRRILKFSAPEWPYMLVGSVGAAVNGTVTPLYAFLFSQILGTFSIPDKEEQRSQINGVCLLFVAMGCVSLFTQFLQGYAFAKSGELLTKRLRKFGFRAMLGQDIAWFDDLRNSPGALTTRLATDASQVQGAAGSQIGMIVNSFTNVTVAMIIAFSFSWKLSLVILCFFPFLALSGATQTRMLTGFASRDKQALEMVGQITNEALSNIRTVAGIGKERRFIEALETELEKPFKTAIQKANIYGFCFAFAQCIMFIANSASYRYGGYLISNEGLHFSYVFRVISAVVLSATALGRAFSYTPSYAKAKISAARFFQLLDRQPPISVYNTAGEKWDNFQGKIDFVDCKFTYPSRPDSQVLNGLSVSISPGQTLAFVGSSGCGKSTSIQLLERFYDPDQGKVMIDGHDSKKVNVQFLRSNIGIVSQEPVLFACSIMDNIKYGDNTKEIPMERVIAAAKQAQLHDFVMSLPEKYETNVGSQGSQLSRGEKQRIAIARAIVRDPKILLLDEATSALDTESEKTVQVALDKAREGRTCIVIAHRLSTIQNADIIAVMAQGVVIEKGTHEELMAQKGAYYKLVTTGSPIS
T4 sequence (Q96FL8 whole entry): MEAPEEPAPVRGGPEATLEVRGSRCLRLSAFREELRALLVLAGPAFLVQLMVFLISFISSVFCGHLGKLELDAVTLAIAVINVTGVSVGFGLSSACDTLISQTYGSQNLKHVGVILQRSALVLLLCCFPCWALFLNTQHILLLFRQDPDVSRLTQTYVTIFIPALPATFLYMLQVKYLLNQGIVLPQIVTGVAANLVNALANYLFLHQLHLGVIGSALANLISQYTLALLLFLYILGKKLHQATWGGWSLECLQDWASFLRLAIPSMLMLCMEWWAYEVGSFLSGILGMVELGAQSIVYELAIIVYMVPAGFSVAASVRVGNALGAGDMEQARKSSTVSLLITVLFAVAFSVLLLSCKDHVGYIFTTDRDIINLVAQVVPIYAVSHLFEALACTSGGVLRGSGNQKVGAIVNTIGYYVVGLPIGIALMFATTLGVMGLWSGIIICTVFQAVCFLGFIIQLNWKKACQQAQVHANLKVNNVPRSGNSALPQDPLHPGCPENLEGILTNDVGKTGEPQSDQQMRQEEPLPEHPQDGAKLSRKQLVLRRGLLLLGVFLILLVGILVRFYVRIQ

SMILES: CC[C@@H]1NC(=O)[C@H]([C@H](O)[C@H](C)CCCCCCNC(C)=O)N(C)C(=O)[C@H](C(C)C)N(C)C(=O)[C@H](CC(C)C)N(C)C(=O)[C@H](CC(C)C)N(C)C(=O)[C@@H](C)NC(=O)[C@H](C)NC(=O)[C@H](CC(C)C)N(C)C(=O)[C@H](C(C)C)NC(=O)[C@H](CC(C)C)N(C)C(=O)[C@@H](C)N(C)C1=O [CRV431] (cyclo(A[dA][NMeL][NMeL][NMeV][NMeThr(4R-Me,4-(CH2)6NHAc)][Abu][dNMeA][NMeL]V[NMeL]))
- IC50 (recombinant Cyp D (PPIF)): 2.8 nM
- IC50 Fold Difference (recombinant Cyp D (PPIF); CsA IC50 vs CRV431 IC50, PPIF): 3.6
- Ballooning score [1, 9]: 0.9 ± 0.6
- Blood glucose [1, 9]: 319 ± 79
- Body weight [1, 9]: 33.5 ± 5.2 (P < 0.05)
- Inflammation score [1, 9]: 1.5 ± 0.7
- Liver weight [1, 9]: 1.28 ± 0.28
- NAS score [1, 9]: 3.7 ± 2.2 (P < 0.05)
- Sirius red % [1, 9]: 1.96 ± 0.72 (P < 0.05) %
- Steatosis score [1, 9]: 1.3 ± 1.1
- Ballooning score [1, 10]: 1.8 ± 0.5
- Blood glucose [1, 10]: 463 ± 143
- Body weight [1, 10]: 26.1 ± 5.1
- Inflammation score [1, 10]: 2.4 ± 0.7
- Liver weight [1, 10]: 1.35 ± 0.28
- NAS score [1, 10]: 6.1 ± 1.1
- Sirius red % [1, 10]: 1.02 ± 0.48 (P < 0.05) %
- Steatosis score [1, 10]: 2.0 ± 0.5
- Blood glucose [1, 11]: 405 ± 134
- Body weight [1, 11]: 41.6 ± 8.9
- Liver weight [1, 11]: 3.04 ± 1.19 (P < 0.05)
- Sirius red % [1, 11]: 1.62 ± 0.57 (P < 0.05) %
- Tumor number [1, 11]: 4.5 ± 4.4
- Tumor score ([1]; Week 20–30 Treatment, 50 mg/kg per day oral, 0–7 scale): 2.25 ± 2.0 (P < 0.05)
- reduction in the number and size of liver tumors ([1]; late, oncogenic stage of the NASH model (abstract)): 50%
- fibrosis levels lower after CRV431 treatment compared with vehicle treatment ([1]; three NASH model studies, 50 mg/kg per day oral, sirius red): 37%–46%
- livers lacking tumors ([1]; treatment from weeks 20 to 30): 2 of 10
- decrease of tumor burden (score of tumor number and size) ([1]; treatment from weeks 20 to 30, vs vehicle): 52%
- fold higher levels in liver than in the blood [2]: 5- to 15 fold
- Maximum enzyme velocity (Vmax) in the presence of compound (recombinant Cyp A (PPIA)): 5.3 µmol/s per nanomole Cyp A
- IC50 Fold Difference (recombinant Cyp A (PPIA); CsA IC50 vs CRV431 IC50, PPIA): 10.2
- IC50 (recombinant Cyp A (PPIA); PPIA (Cyp A), one peptide substrate concentration): 2.5 nM
- Ki (recombinant Cyp A (PPIA); competitive enzyme inhibition model, multiple substrate concentrations, 4°C, read-out: Ki toward cyclophilin A): 1.3 nM
- fold higher potency of CRV431 vs CsA (Ki) (recombinant Cyp A (PPIA); ratio of Ki values): 13 fold
- inhibition of proliferation [3]: 40%
- IC50 Fold Difference (recombinant Cyp B (PPIB); CsA IC50 vs CRV431 IC50, PPIB): 3.7
- IC50 (recombinant Cyp B (PPIB); PPIB (Cyp B), one peptide substrate concentration): 3.1 nM
- IC50 (BSEP): 1420 nM
- CRV431 Inhibitory Potency vs. CsA (MATE-1): Same (no inhibition)
- Liver:Blood [CRV431] Ratio ([4]; 30 mg/kg per day oral, day 7, 12 hours post-dose): 6.6 ± 1.1
- Liver:Blood [CRV431] Ratio ([4]; 30 mg/kg per day oral, day 7, 24 hours post-dose): 4.8 ± 1.1
- Liver:Blood [CRV431] Ratio ([4]; 250 mg/kg per day oral, day 7, 12 hours post-dose): 7.6 ± 1.8
- Liver:Blood [CRV431] Ratio ([4]; 250 mg/kg per day oral, day 7, 24 hours post-dose): 5.3 ± 0.6
- IC50 (BCRP): 23000 nM
- CRV431 Inhibitory Potency vs. CsA (OAT1): Same (no inhibition)
- IC50 (OAT1): > 50000 nM
- Liver:Blood [CRV431] Ratio ([5]; CCl4, 50 mg/kg per day oral, day 42, 4 hours post-dose): 15.4 ± 10.4
- Liver:Blood [CRV431] Ratio ([5]; NASH, 50 mg/kg per day oral, day 189, 3 hours post-dose): 11.9 ± 8.5
- peak blood levels at which CRV431 efficacy occurred in mice ([5]; mouse, in vivo): 1.2 to 1.4 µg/mL
- Blood [5, 12]: 1.4 ± 1.5 µg/mL
- Liver [5, 12]: 11.6 ± 9.0 µg/g
- half-life (in words) [6]: relatively long CRV431 half-life that exceeded that of CsA
- clearance fold difference, CRV431 vs CsA [7]: 3.5 fold
- IC50 Fold Difference ([8]; CsA IC50 vs CRV431 IC50, PPIG): 3.8
- IC50 ([8]; PPIG (Cyp G), one peptide substrate concentration): 7.3 nM
